The record followed here is article PMC7203153, “Rational identification and characterisation of peptide ligands for targeting polysialic acid” (Scientific Reports, 2020).

The nature of assay [1]: Competitive microarray selectivity screening with α-2,8/9-PSA. The assay is classed as binding, Escherichia coli. The conditions noted are these: for % selectivity: binding to 10 μM α-2,8-PSA (CA) with 10% competing α-2,8/9-PSA, ± SD of triplicate intra-assay measurements, SD; for selectivity mark in Table 1: 10% competing α-2,8/9-PSA. The protocol:
Competitive microarray screening with α-2,8/9-PSA was conducted in order to assess selective binding of peptides to α-2,8-PSA. The definition of percent selectivity at 10% competing glycan was applied to enable selectivity comparisons amongst a larger set of peptides[25] […] However, the use of an isomeric polymer is a more stringent assessment of selectivity; here, selective binding is guided by three-dimensional conformation and not additionally by differences in functional groups.
Peptide library synthesis, microarray preparation, and microarray screening were performed as described previously[25] with the following specifications. Siglec-related sequences were N-terminally acetylated to match the charge of the corresponding protein fragment. All peptides were printed in triplicate (60 nL spots), and each initial affinity screening was carried out at least three times. Screening was conducted with 10 μM colominic acid (CA; 5 mL per microarray), the Escherichia coli homolog of α-2,8-PSA identical in structure to human-derived PSA[67], and with antibody-based chemiluminescent detection of CA. For selectivity screening, microarrays were challenged with 10 μM CA with 0, 0.1, 1, and 10 μM α-2,8/9-PSA in separate conditions (5 mL total volume each), where molar concentrations were based on molecular weight estimation of synthesized 2,8/9-PSA (details on α-2,8/9-PSA production, purification, and analysis are provided in Supplementary Information). Selectivity screening with monomeric sialic acid was conducted with mass and molar equivalents of N-acetylneuraminic acid (Rose Scientific, Ltd.) along with 10 μM CA (5 mL total volume each). The mass equivalent amount of sialic acid (specifically, 970 μM sialic acid for a given volume of 10 μM CA) was calculated for CA of an average degree of polymerization of 100. For study of pH-dependent binding, affinity screening with CA was performed using PBS buffers of pH 6.0, 7.0, 7.4, and 8.0 (10 mM phosphate, 100 mM NaCl). The impact of NaCl on peptide binding was assessed at pH 7.4 with 0, 100, and 200 mM NaCl. […]

Assay [2] is described as follows: Peptide microarray affinity screening against α-2,8-PSA (colominic acid). The conditions noted are these: 10 μM CA, pH 7.4. The class given is binding, Escherichia coli. The protocol: Peptide library synthesis, microarray preparation, and microarray screening were performed as described previously[25] with the following specifications. Siglec-related sequences were N-terminally acetylated to match the charge of the corresponding protein fragment. All peptides were printed in triplicate (60 nL spots), and each initial affinity screening was carried out at least three times. Screening was conducted with 10 μM colominic acid (CA; 5 mL per microarray), the Escherichia coli homolog of α-2,8-PSA identical in structure to human-derived PSA[67], and with antibody-based chemiluminescent detection of CA. For selectivity screening, microarrays were challenged with 10 μM CA with 0, 0.1, 1, and 10 μM α-2,8/9-PSA in separate conditions (5 mL total volume each), where molar concentrations were based on molecular weight estimation of synthesized 2,8/9-PSA (details on α-2,8/9-PSA production, purification, and analysis are provided in Supplementary Information). Selectivity screening with monomeric sialic acid was conducted with mass and molar equivalents of N-acetylneuraminic acid (Rose Scientific, Ltd.) along with 10 μM CA (5 mL total volume each). The mass equivalent amount of sialic acid (specifically, 970 μM sialic acid for a given volume of 10 μM CA) was calculated for CA of an average degree of polymerization of 100. For study of pH-dependent binding, affinity screening with CA was performed using PBS buffers of pH 6.0, 7.0, 7.4, and 8.0 (10 mM phosphate, 100 mM NaCl). The impact of NaCl on peptide binding was assessed at pH 7.4 with 0, 100, and 200 mM NaCl.
Microarray image and data analysis was performed as described. […] Of the triplicate experiments used to generate mean microarray affinity intensities in standard conditions (within each of which 762 peptides were represented in triplicate), 225 out of 762 values in one of these three experiments were derived from raw data previously reported, but were alternatively analysed as stated. Peptide isoelectric points were calculated with the EMBOSS iep program.

A short description of assay [3]: Fluorescence anisotropy (FA) assay of peptide–PSA binding. Further details: species or system Escherichia coli. Conditions: for Kd: FA titration, N-acetylated, C-terminally TAMRA-labelled peptide 20 nM, CA 0–1500 μM, PBS pH 7.4 (10 mM phosphate, 100 mM NaCl), 3 h, ~20 °C, four-parameter logistic fit, at least triplicate, * = accuracy likely poor (SE > KD). The procedure:
Peptides (Table 2) were synthesized at >95% purity (confirmed with HPLC) by Biomatik (see Supplementary Information). All peptides were N-terminally acetylated and C-terminally labelled with tetramethylrhodamine dye (TAMRA). TAMRA was chosen as a label due to its pH insensitivity compared to FAM (fluorescein) and related dyes commonly used for fluorescence assays. Experiments were conducted in black 384-well plates with non-binding surface (NBS, Corning, Inc.) to minimize background binding and enhance signal-to-noise ratio in the fluorescence-based binding assay. Titrations were carried out through addition of TAMRA-labelled peptide (8 μL, final concentration 20 nM) to CA (72 μL, final concentrations 0–1500 μM) in PBS, pH 7.4 (10 mM phosphate, 100 mM NaCl), and solutions were incubated with agitation to equilibrium at room temperature (3 h, ~20 °C). Parallel and perpendicular intensities were subsequently measured at 530 nm excitation (band width 5 nm) and 580 nm emission (band width 20 nm) in fluorescence polarization mode with a Tecan Infinite M1000 Pro plate reader. Total fluorescence intensities were also measured as a control for fluorophore properties with target binding; fluorescence intensities of free peptide were determined to be approximately equivalent to intensities with peptide–CA mixtures. At higher concentrations of free CA (control with no peptide addition), attenuation of detected light differed in parallel and perpendicular planes, so respective intensities were subtracted from peptide–CA intensities prior to anisotropy calculations. […] Unique samples were screened in at least triplicate within each titration experiment, and each peptide titration was carried out at least twice. In experimental repeats, peptide locations on plates were varied to prevent location-specific effects, if any, and different combinations of peptides were assessed at once. Anisotropies were calculated from corrected parallel and perpendicular intensities, and values were fit to the four-parameter logistic binding model[70] in MATLAB. Prior to curve fitting, anisotropy values for each peptide were transformed through subtraction of minimum values to enhance comparison between peptides. The resulting translations in binding curves were identical, within error, to change in anisotropy curves obtained through subtraction of anisotropy of free labelled peptide. Bmax and KD values obtained were used in the calculation of Bmax/KD ratios for comparison to microarray intensity values, and the Pearson correlation coefficient (r) was determined.

Where [4] appears, read: at least two independent experiments.

Marks after values point to notes of the source that are not given here. Where a SMILES comes first, the peptide text is derived from it.

As for “GSGSGTDFTLKISRV [II-P35, peptide designed from mAb735]”, the “% selectivity” value in assay [1] is on record as 53 ± 6%.
In the case of LSPRRTRPSTSHFSV [I-P86], the “% selectivity” value in assay [1] came out at 62 ± 10%.
As to AALSPRRTRPSTSHF [I-P85], the “% selectivity” value in assay [1] was found to be 59 ± 5%.
Consider “GRTSAKTGAPVATNN [I-P344, Siglec-11-derived peptide with P5A mutation]”, for which the “% selectivity” value in assay [1] worked out at 85 ± 8%.
For `CC(=O)N[C@@H](CCC(=O)O)C(=O)N[C@@H](Cc1c[nH]cn1)C(=O)NCC(=O)NCC(=O)NCC(=O)N[C@@H](CC(C)C)C(=O)NCC(=O)N[C@@H](CC(C)C)C(=O)NCC(=O)N[C@@H](C)C(=O)N[C@@H](C)C(=O)N[C@@H](CC(C)C)C(=O)NCC(=O)N[C@@H](C)C(=O)NCC(N)=O` [I-P264] (Ac-EHGGGLGLGAALGAG-NH2), the “change in microarray binding with 200 mM vs 100 mM NaCl” value in assay [2] is reported as “did not display any change in binding”.
Regarding “WFKGKTSPKTGAPVA [I-P333, Siglec-11-derived peptide with R5K mutation]”, the “% selectivity” value in assay [1] is 59 ± 2%.
Regarding WGPRTLGLELRGVRA [I-P143], the “% selectivity” value in assay [1] is listed as 37 ± 1%.
Consider YWFKGRTSPKTGAPV [I-P23], for which the “% selectivity” value in assay [1] turned out to be 43 ± 3%.
Consider FSRKGVSAQRTVRLR [I-P103], for which the “% selectivity” value in assay [1] was 55 ± 11%.
Still for that read-out and setting: under “VPYTFGGGTRLEIKG [II-P50, peptide designed from mAb735]” stands 71 ± 9%.
Take VKICRKEARKRAAAE [I-P279]: in assay [1], the “% selectivity” value turned out to be 46 ± 12%.
Still for that read-out and setting: under VDFSRKGVSAQRTVR [I-P102] stands 59 ± 10%; under RKGVSAQRTVRLRVA [I-P104], 45 ± 4%.
For the compound “PGSGNTKYNEKFKGK [II-P77, peptide designed from mAb735]”, the “% selectivity” value in assay [1] was 49 ± 5%.
“TLPAILQASGTRGGGS [II-P145, phage display screening peptide with S8A mutation]”: the “% selectivity” value in assay [1] was 81 ± 16%.
In the case of LKVTALTKKPDVYIP [I-P62], the “% selectivity” value in assay [1] came out at 67 ± 17%.
Regarding KIHTGQPLRGPGFGL [I-P323], the “% selectivity” value in assay [1] was determined as 86 ± 8%.
For LSNAFFLKVTALTKK [I-P59], the “% selectivity” value in assay [1] was determined as 52 ± 10%.
Regarding QELHYASLSFQGLRL [I-P307], the “% selectivity” value in assay [1] turned out to be 80 ± 14%.
Take YSEIKIHTGQPLRGP [I-P321]: the “% selectivity” value in assay [1] came to 85 ± 18%.
For “WFKGRTSPKTGAPVA [I-P330, Siglec-11-derived peptide]”, the “% selectivity” value in assay [1] turned out to be 35 ± 1%.
Same read-out and setting: under NAFFLKVTALTKKPD [I-P60] stands 70 ± 18%.
For orientation: Kd means a measure of binding affinity in units of concentration. Take `CC[C@H](C)[C@H](NC(C)=O)C(=O)N[C@@H](Cc1ccc(O)cc1)C(=O)N1CCC[C@H]1C(=O)NCC(=O)N[C@@H](CO)C(=O)NCC(=O)N[C@@H](CC(N)=O)C(=O)N[C@H](C(=O)N[C@@H](CCCCN)C(=O)N[C@@H](Cc1ccc(O)cc1)C(=O)N[C@@H](CC(N)=O)C(=O)N[C@@H](CCC(=O)O)C(=O)N[C@@H](CCCCN)C(=O)N[C@@H](Cc1ccccc1)C(=O)N[C@@H](CCCCN)C(N)=O)[C@@H](C)O` [II-P76] (Ac-IYPGSGNTKYNEKFK-NH2): in assay [3] (setting [4]), the Kd was 1290 µM.
As for “GRTSPKAGAPVATNN [I-P346, Siglec-11-derived peptide with T7A mutation]”, the “% selectivity” value in assay [1] is recorded as 91 ± 15%.
Turning to `CC(=O)N[C@@H](CC(N)=O)C(=O)N[C@@H](CCCNC(=N)N)C(=O)N[C@H](C(=O)N[C@H](C(=O)N[C@@H](CC(C)C)C(=O)N[C@@H](CCCNC(=N)N)C(=O)N[C@@H](CC(N)=O)C(=O)N[C@@H](CC(C)C)C(=O)NCC(=O)N[C@@H](CC(N)=O)C(=O)NCC(=O)N[C@H](C(=O)N[C@@H](CO)C(=O)N[C@@H](CC(C)C)C(=O)N1CCC[C@H]1C(N)=O)[C@@H](C)O)C(C)C)[C@@H](C)O` [II-P336] (Ac-NRTVLRNLGNGTSLP-NH2), the “selectivity mark in Table 1” value in assay [1] is listed as “II-P336* (Peptides with selectivity >80%)”. Further, the Kd in assay [3] (setting [4]) was determined as 577 µM. Further, the “Bmax/KD ratio (binding potential)” value in assay [3] (from FA curve fits, among the peptides characterised with FA) is “highest”.
For FRVKICRKEARKRAA [I-P278], in assay [1], the “% selectivity” value is listed as 43 ± 8%.
`CC(=O)N[C@@H](CCCCN)C(=O)N[C@@H](CC(=O)O)C(=O)N1CCC[C@H]1C(=O)N[C@@H](CO)C(=O)N[C@@H](Cc1ccc(O)cc1)C(=O)N[C@@H](CO)C(=O)N[C@@H](CC(C)C)C(=O)N[C@@H](CCC(N)=O)C(=O)N[C@H](C(=O)N[C@@H](CCC(N)=O)C(=O)N[C@@H](CCCNC(=N)N)C(=O)N[C@@H](CCC(N)=O)C(=O)N[C@H](C(=O)N1CCC[C@H]1C(=O)N[C@H](C(N)=O)C(C)C)C(C)C)C(C)C` [I-P2] (Ac-KDPSYSLQVQRQVPV-NH2): in assay [3] (setting [4]), the Kd came to 405 µM. The Non-adjusted anisotropy in assay [3] (PSA concentration 1500 µM, ± inter-assay SD, at least two independent experiments, SD) was determined as 35.8 ± 11.5. Besides, the “change in microarray binding with 200 mM vs 100 mM NaCl” value in assay [2] was “did not display any change in binding”.
Regarding “AISSPLLRNPFRGGGS [II-P213, phage display screening peptide with W8R mutation]”, in assay [1], the “% selectivity” value is on record as 66 ± 9%.
Take “AISSPLLKNPFRGGGS [II-P214, phage display screening peptide with W8K mutation]”: the “selectivity mark in Table 1” value in assay [1] is recorded as “II-P214* (Peptides with selectivity >80%)”.
Consider “GGKGGGKGGGKGGGK [I-P380, de novo peptide composed of lysine and glycine residues]”, for which the “% selectivity” value in assay [1] stood at 56 ± 7%.
In the case of “KGGGKGGGKGGGKGG [I-P379, de novo peptide composed of lysine and glycine residues]”, the “% selectivity” value in assay [1] was 61 ± 7%.
On to “KGKGKGKGKGKGKGK [I-P378, de novo designed peptide with alternating Lys and Gly residues]”, for which the “% selectivity” value in assay [1] came out at 60 ± 9%.
